# According to US20030161893A1, “PTPase inhibitors and methods of using the same” (priority 2001, published 2003):
# Columns and labels:
# Baf3 cells = assay: Induction of cellular protein tyrosine phosphorylation in Baf3 cells (Western blotting); format: cell-based, murine; details: Baf3 deprived of IL-3; proteins of about 55 and 32 kDa
# Description: For induction of cellular protein phosphorylation by sodium stibogluconate or pervanadate, Baf3 cells were incubated in 0.1% FCS-RPMI 1640 medium at 37° C. for 16 hours. The cells were then washed twice in RPMI 1640 medium and incubated with sodium stibogluconate or pervanandate (0.1 mM) for various times prior to termination by lysing cells in cold lysis buffer (50 mM Tris, pH 7.4; 150 mM NaCl; 0.2 mM Na3VO4; 20 mm NaF; 1% Nonidet P-40; 2 mM PMSF; 20 μg/ml of Aprotinin and 1 mM of sodium molybdic acid). To determine the effect of sodium stibogluconate or potassium antimonyl tartrate on IL-3-induced Jak/Stat phosphorylation, Baf3 cells were deprived of the growth factor for 16 hours in 0.1% FCS RPMI 1640 medium and then incubated with or without sodium stibogluconate or potassium antimonyl tartrate for 10 minutes. IL-3 was next added to the cell suspension and incubated for various times. The Cells were then harvested and lysed in cold lysis buffer at 4° C. for 45 minutes. Total cell lysates (TCL) were separated in SDS-PAGE gels, blotted onto nitrocellulose membrane (Schleicher & Schuell), probed with specific antibodies and detected using an enhanced chemiluminescence kit (ECL, Amersham, Arlington Heights, Ill.).
# Stat1 = assay: IFN-alpha-induced Stat1 tyrosine phosphorylation, WM9 cells; format: cell-based, human; details: WM9, 5 hours post-stimulation
# Description: For induction of Stat1 tyrosine phosphorylation by IFN-alpha in the absence or presence of sodium stibogluconate, cells grown in 10% FCS RPMI 1640 medium at 37° C. were stimulated with IFN-alpha (50 u/ml) for various time points and treated with or without sodium stibogluconate for 5 minutes prior to termination by lysing the cells in cold lysis buffer (1% NP-40; 50 mM Tris, pH 7.4; 100 mM NaCl; 1 mM EDTA, 10% glycerol, 10 mM sodium molybdic acid and 4 mM AEBSF).
# Cell lysates were prepared by lysing cells in cold lysis buffer for 30 min and cleared by centrifuging at 14,000 rpm at 4° C. for 15 min. For SDS-PAGE, cell lysates were mixed with equal volume of 2×SDS-PAGE sample buffer, heated at 90° C. for 5 min and separated in 10% SDS-PAGE gels. Cellular proteins in SDS-PAGE gels were transferred to nitrocellulose membrane (Schleicher & Schuell, Keene, N.H.), blocked in 5% milk, probed with antibodies and detected by using an enhanced chemiluminescence kit (ECL, Amersham, Arlington Heights, Ill.).
# Flag-PRL-3 = target: T1, Flag-PRL-3 (Homo sapiens, UniProt O75365); assay: Immunocomplex PTPase assay, Flag-PRL-3 NIH3T3 transfectants; format: cell-based; details: cells treated 5 min
# T1 construct: expressed in transfected cells
# T1 sequence (O75365 whole entry): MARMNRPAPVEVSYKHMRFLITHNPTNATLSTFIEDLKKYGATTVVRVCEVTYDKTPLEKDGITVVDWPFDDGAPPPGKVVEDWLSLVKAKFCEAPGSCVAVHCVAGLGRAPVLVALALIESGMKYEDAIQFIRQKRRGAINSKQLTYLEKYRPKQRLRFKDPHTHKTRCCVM
# Description: Immunocomplex PTPase assays were performed to assess the effects of sodium stibogluconate on intracellular PTPases. Cells were untreated or treated with sodium stibogluconate for 5 minutes, washed with fresh medium and then lysed in cold lysis buffer (50 mM Tris, pH 7.4; 150 mM NaCl; 1% NP40; 2 mM PMSF; 20 ,g/ml of Aprotinin). The lysates were incubated with an anti-Flag antibody in immunoprecipitation assays. The immunocomplexes were collected with protein G sepharose beads (Pharmacia) and washed in cold lysis buffer for 4 times. […] 100 μL of malachite green solution (UBI) was added to each reaction prior to measurement of OD660 to quantify the amounts of free phosphate cleaved by the PTPases from the peptide substrate (Pathak et al., J. Imumol. 167, 3391 (2001)). The remaining 10% contents of individual samples were analyzed by SDS-PAGE/Western blotting to quantify the relative amounts of the phosphatase proteins. […]
# The effects of sodium stibogluconate on intracellular PTPases were assessed using NIH3T3 or WM9 transfectants. […]
# [1] = tested on: PML/RAR-alpha chimeric protein; assay: PML/RAR-alpha chimeric protein expression in NB4 cells; format: cell-based, human
smiles,measurement,setting,value
O.O.O.O.O.O.O.O.O.O=C([O-])[C@@H]1[O][Sb]2([O-])([O][Sb]34([OH])[O][C@H]([C@H](O)CO)[C@H]([O]3)[C@H](C(=O)[O-])[O]4)[O][C@H]([C@H](O)CO)[C@@H]1[O]2.[Na+].[Na+].[Na+] [sodium stibogluconate],cellular protein tyrosine phosphorylation,Baf3 cells,induced protein tyrosine phosphorylation
same,IFN-alpha-induced Stat1 tyrosine phosphorylation,Stat1,Enhanced
same,"PTPase activity of anti-Flag immunocomplexes, Flag-PRL-3",Flag-PRL-3,lack of PTPase activity
same,expression levels of PML/RAR-alpha chimeric protein,[1],no detectable effect
